Assay results taken from EPA's ToxValDB 9.5 (doi:10.2903/j.efsa.2020.6232).

How the values were obtained:
Apis mellifera = details: acute, mortality
Bibionidae = details: chronic/long-term; duration: 23 days; reproduction
Colinus virginianus = details: acute, oral, mortality
Coturnix japonica = details: reproduction developmental
Hypoaspis aculeifer = details: chronic/long-term; reproduction
Oncorhynchus mykiss = details: acute; duration: 96 hours; mortality
Pimephales promelas = details: chronic/long-term; duration: 28 days
Tagia sp. = details: chronic/long-term; reproduction
Typhlodromus pyri = assay: LR50; higher = less toxic; details: mortality

Cc1ccc(-c2c(Cl)nc(C#N)n2S(=O)(=O)N(C)C)cc1
LD50 (Apis mellifera; dermal): 9.52 µg/piece | LD50 (Apis mellifera; oral, unspecified): > 31.8 µg/piece | NOEC (Bibionidae): 0.0117 mg/L | LD50 (Colinus virginianus; diet): > 1280 mg/kg-day | LD50 (Colinus virginianus): > 2000 mg/kg-day | NOAEL (Coturnix japonica): 151 mg/kg-day | NOEC (Hypoaspis aculeifer): 18.7 mg/kg | LC50 (Oncorhynchus mykiss): > 0.107 µg/mL | NOEC (Pimephales promelas): 0.09 mg/L | LD50 (Rattus norvegicus; acute, oral, mortality): > 5000 mg/kg-day | NOAEL (Rattus norvegicus; chronic, duration: 2 years, organ weight): 17 mg/kg-day | NOAEL (Rattus norvegicus; reproduction developmental, body weight): 89 mg/kg-day | NOAEL (Rattus norvegicus; subchronic, duration: 90 days, oral, organ weight): 29.5 mg/kg-day | NOEC (Tagia sp.): 2 mg/kg | LR50 (Typhlodromus pyri; acute, duration: 10 days): 256 g/ha | LR50 (Typhlodromus pyri; not reported): 80 g/ha
